From PubChem BioAssay (NCI)
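Exposure lasted 48 hours, with cells grown in 96-well plates and compounds tested at five concentrations. Here, GI50 denotes the concentration required for 50% inhibition of growth. At the TGI there is no net growth.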

Experiments:
Experiment in all cases: NCI-60 cell line screen, 48 h
COLO 205 colon = system: COLO 205 colon
EKVX NSCLC = system: EKVX NSCLC
HCC-2998 colon = system: HCC-2998 colon
K-562 leukemia = system: K-562 leukemia
OVCAR-5 ovarian = system: OVCAR-5 ovarian
RXF 393 renal = system: RXF 393 renal
SF-539 CNS = system: SF-539 CNS
SK-MEL-28 melanoma = system: SK-MEL-28 melanoma
SW-620 colon = system: SW-620 colon
T-47D breast = system: T-47D breast

SMILES | TGI (COLO 205 colon) [µM] | TGI (EKVX NSCLC) [µM] | TGI (HCC-2998 colon) [µM] | TGI (K-562 leukemia) [µM] | TGI (OVCAR-5 ovarian) [µM] | TGI (RXF 393 renal) [µM] | TGI (SF-539 CNS) [µM] | TGI (SK-MEL-28 melanoma) [µM] | TGI (SW-620 colon) [µM] | TGI (T-47D breast) [µM] | GI50 (COLO 205 colon) [µM] | GI50 (EKVX NSCLC) [µM] | GI50 (HCC-2998 colon) [µM] | GI50 (K-562 leukemia) [µM] | GI50 (OVCAR-5 ovarian) [µM] | GI50 (RXF 393 renal) [µM] | GI50 (SF-539 CNS) [µM] | GI50 (SK-MEL-28 melanoma) [µM] | GI50 (SW-620 colon) [µM] | GI50 (T-47D breast) [µM]
Nc1cc2c3c(cccc3c1)NC2=O | > 100 | > 100 | > 100 | > 100 | > 100 | > 100 | > 100 | > 100 | > 100 | > 100 |  |  |  |  |  |  |  |  |  | 
COc1ccc(C(=O)N2c3ccccc3Sc3ccccc32)c(F)c1 | 26.8 | > 100 | > 100 | > 100 | > 100 | > 100 | 3.36 | > 100 | > 100 | > 100 | 0.445 | 2.72 | 2.38 | 0.442 | 3.66 | 0.764 | 0.409 | 1.64 | 0.458 | 0.639
C[n+]1cc2c3c(ccc2c2ccc4cc5c(cc4c21)OCO5)OCO3 | 0.778 | 2.65 | 2.92 | 3.06 | 2.42 | 1.32 | 3.02 | 2.48 | 0.36 | 3.13 | 0.255 | 1.33 | 1.47 | 0.47 | 1.16 | 0.351 | 1.42 | 1.22 | 0.174 | 1.42
CC1(C)O[C@H]2OC3CCC(=O)CC3(O)[C@H]2O1 (some centres undefined) | > 100 | > 100 | > 100 | > 100 | > 100 | > 100 | > 100 | > 100 | > 100 | > 100 |  |  |  |  |  |  |  |  |  | 
COc1ccc(Cl)cc1Nc1nc(C(F)(F)F)ccc1C(=O)NN | > 100 | > 100 | 9.82 | > 100 | > 100 | > 21.4 | > 30.7 | > 100 | > 100 | > 100 | 7.76 | 2.93 |  | 3.35 | 3.81 | 1.68 | 6.52 | 3.38 | 27.9 | 5.06
CSc1ccc(C2=Nn3c(nnc3-c3ccc(F)c(Cl)c3)SC2)cc1 | > 100 | > 100 | > 100 | > 100 | > 100 | 19.4 | 26.7 | > 100 | > 100 | > 100 | 25.9 | 42.1 | 24 | 2.28 | 39.5 | 4.46 | 10.1 | 34.2 | 11.6 | 71
COc1ccc(C2SC(N)=Nc3c2c(C)nn3C(=O)c2ccc(Cl)cc2)cc1OC (centres undefined) | > 10 | > 10 | > 10 | > 10 | > 10 | > 10 | > 10 | > 10 | > 10 | > 10 |  |  |  |  |  |  |  |  |  | 
Cc1ccc(C(=O)Nc2ccc(CN3CCN(C)CC3)c(C(F)(F)F)c2)cc1C#Cc1cnc(N)c2ccc(F)cc12 | 0.933 | 4.73 | 0.798 | 0.9 | 2.7 | 0.579 | 1.24 | 0.918 | 0.638 | 3.68 | 0.301 | 1.06 | 0.377 | 0.00431 | 0.694 | 0.218 | 0.527 | 0.41 | 0.251 | 0.77
CC(=O)c1cccc(N(/C=C/C(=O)C(F)(F)F)CC(=O)c2ccc(Cl)cc2)c1 | > 100 | > 100 | > 100 | > 100 | > 100 | > 100 | > 100 | > 100 | > 100 | > 100 | > 100 | > 100 | > 100 | > 100 | > 100 | > 100 | > 100 | > 100 | > 100 | > 100
CC(C)(C)OC(=O)NCC(C#N)CNC(=O)OC(C)(C)C | > 100 | > 100 | > 100 | > 100 | > 100 | > 100 | > 100 | > 100 | > 100 | > 100 |  |  |  |  |  |  |  |  |  | 
CS(=O)(=O)c1ccc(Cl)c([N+](=O)[O-])c1 | 33.2 | 38.1 | 24 | 66.5 | 36.1 | 24.5 | 34.4 | 32 | 28.6 | 35.1 | 16.4 | 18.5 | 11 | 6.78 | 20.1 | 11.9 | 19.2 | 17.9 | 12.8 | 13.5
Fc1cccc(COc2ccc(Nc3ncnc4sc(-c5ccco5)cc34)cc2Cl)c1 | > 25 | > 25 | > 25 | > 25 | > 25 | > 25 | > 25 | > 25 | > 25 | > 25 | > 25 | > 25 | > 25 | > 25 | > 25 | > 25 | > 25 | > 25 | > 25 | > 14.5
